Assays:
Assay type in all cases: cell-based, human
[1] = test system: Oct3/4-GFP+MCF7 cells versus unfractionated MCF7 cells; assay: Differential chemotherapeutic responses, viable adherent cell counts by trypan blue exclusion; conditions: FIG. 6; viable adherent cells over time
Protocol: FIG. 6. Differential chemotherapeutic responses of MCF7 and Oct3/4-GFP+MCF7 cells. 10^5 unfractionated, MCF7 cells (dotted line) or Oct3/4GFP+MCF7 cells (broken line) were seeded into 6 well plates and allowed to achieve ca. 30-50% confluence. The indicated concentrations of adriamycin, etoposide, 5-fluorouracil, cis-platinum, methotrexate, and taxol were then added (day 0). The total number of viable adherent cells was then determined at the indicated times by trypan blue exclusion. […] Note that in most cases Oct4/4-GFP+MCF7 actually grew in the presence of all agents. These experiments were repeated at least two additional times with similar outcomes.
Differential chemosensitivities of Oct3/4-GFP+MCF7 cells. It is believed that CSCs are more resistant to chemotherapeutic agents than TACs, thus at least partly accounting for the propensity of many tumors to relapse after an initial response. To test this idea, MCF7 cells and Oct3/4-GFP+MCF7 CSCs were exposed to six different chemotherapeutic agents commonly employed to treat breast cancer.

Oct3/4-GFP+ MCF7 cells = assay: Screen for selective inhibition of Oct3/4-GFP+MCF7 cells (GFP level / cell viability, 384 well plates); conditions: initial screen; 3 day exposure, 5 μM, triplicate samples, relative changes in GFP levels
Protocol: MCF7 cells were used as the target population. Control cells consisted of Oct3/4-GFP-cells that were infected with a GFP-expressing lentivirus as a way of controlling for GFP expression. Initial screenings were performed in 384 well plates on triplicate samples. A fluorescent plate reader was used to quantify relative changes in GFP levels after a 3 day exposure to a 5 μM concentrations of each compound. […] These experiments were performed in 12 well plates in which 2000 cells/well were initially seeded and allowed to attach for one day. The following day (day 0), the medium was replaced with fresh medium containing the indicated concentrations of each compound. Cell counts were then performed manually on triplicate wells. Bars represent standard errors.
The cell viability assay was performed as follows:
Trypsinize cell and resuspend in MCF7 culture medium at a density of 4×10^4/ml Culture medium: alpha MEM, 10% FBS, 2 mM Glutamine, 1 mM Sodium Pyruvate, 1 mM non-essential amino acids, 100 U/ml Penicillin/Streptomycin
(1) dilute compounds to 30 μM using alpha MEM
(2) add 5 μl compounds to each well (final concentration 5 μM)
(3) add 25 μl cell suspension to each well (1000 cells/well)
(4) incubate cells with compounds for 72 hours at 37° C., 5% CO2
3. […] The plates were then read on SpectraMax M5 Microplate Reader using the wavelength of excitation 560 nm/emission 590 nm.

[2] = test system: MCF7 cells and Oct3/4-GFP+MCF7 cell population; assay: Hoechst 33342 side population (SP) exclusion; conditions: exposure to 20 μM Reserpine; SP fractions of MCF7 and Oct3/4-GFP+MCF7 cells
Protocol: In other studies, Oct3/4-GFP+MCF7 cells were examined by qRT-PCR for expression of the breast cancer CSC markers CD133 and Oct3/4. After normalizing to GAPDH, the ratios of these transcripts in Oct3/4-GFP+MCF7 cells and non-CSC-MCF7 cells were 6.3 for CD 133 and 2.5 for Oct3/4. […] The SP is due to CSCs ability to exclude the dye Hoechst 33342 and reflects high expression of ABCG2 transporters such as MDR1 and BRCP. […] These fractions could also be reduced by >70% following exposure to 20 μM Reserpine, which inhibits ABC transporters. Moreover, the overall mean fluorescence intensity of the entire Oct3/4-GFP+MCF population was two-fold lower than that of the MCF7population. Thus, based on independent qRT-PCR assessments of CSC gene expression profiles and on uptake/exclusion of Hoechst 33342, one can conclude that the Oct3/4-GFP+MCF7 population consists of highly enriched and stable cells that are unable to differentiate into TACs.

SMILES: CC(=O)O[C@H]1C(=O)[C@@]2(C)[C@H]([C@H](OC(=O)c3ccccc3)[C@]3(O)C[C@H](OC(=O)[C@H](O)[C@@H](NC(=O)c4ccccc4)c4ccccc4)C(C)=C1C3(C)C)[C@]1(OC(C)=O)CO[C@@H]1C[C@@H]2O [taxol]
- sensitivity/resistance of Oct3/4-GFP+MCF7 cells relative to MCF7 cells [1]: significantly more sensitive

SMILES: CC(=O)c1c(O)c(C)c(O)c(Cc2c(O)c3c(c(C(=O)/C=C/c4ccccc4)c2O)OC(C)(C)C=C3)c1O [Rottlerin, 5,7-dihydroxy-2,2-dimethyl-6-(2,4,6-trihydroxy-3-methyl-5-acetylbenzyl)-8-cinnamoyl-1,2-chromene]
- selectivity for Oct3/4-GFP+MCF7 cells over control GFP-lentivirus cells (Oct3/4-GFP+ MCF7 cells): potentially selective agents

SMILES: COC(=O)[C@H]1[C@H]2C[C@@H]3c4[nH]c5cc(OC)ccc5c4CCN3C[C@H]2C[C@@H](OC(=O)c2cc(OC)c(OC)c(OC)c2)[C@@H]1OC [Reserpine]
- reduction of side population (SP) fractions [2]: > 70%

SMILES: Cl.NC[C@@H]1O[C@H](C23CC4CC(CC(C4)C2)C3)Cc2c1ccc(O)c2O [A77636]
- selectivity for Oct3/4-GFP+MCF7 cells over control GFP-lentivirus cells (Oct3/4-GFP+ MCF7 cells): potentially selective agents
